Values quoted from earlier work, collected in patent US20100179106A1, “MITOCHONDRIAL COMPOSITIONS AND USES THEREOF” (Gencia Corporation, priority 2007, published 2010).

Legend:
[1] = tested on: brain slice cultures; settings: 20 mM creatine, brain slice cultures (Li et al. 2004)
[2] = parameters: dose or concentration left out as unconfirmed; settings: dosages as high as (Harris et al. 1992)
[3] = tested on: patients with mitochondrial disorders; settings: short-term study, creatine supplementation (Tarnopolsky et al. 1997)

CN(CC(=O)O)C(=N)N [creatine, 2-(carbamimidoyl-methyl-amino) acetic acid]
mitochondrial activity [1]: sufficient to stimulate mitochondrial activity | side effects [2]: no reported side effects | high-intensity anaerobic and aerobic activities [3]: improved | lower-intensity aerobic activities [3]: no effect
